Experimental data from ChEMBL document CHEMBL3102801, “Synthesis and antiproliferative activity of new derivatives containing the polycyclic system 5,7:7,13-dimethanopyrazolo[3,4-b]pyrazolo[3',4':2,3]azepino[4,5-f]azocine” (Eur J Med Chem, 2014).
Activity calls are given as the source filed them. The calls are words filed in the database; no cut-off is given here.

Legend:
ACHN = experiment: Growth inhibition of human ACHN cells after 48 hrs by sulforhodamine B assay; assay type: functional
[1] = target: T1, Retinoblastoma-associated protein (Homo sapiens) (UniProt P06400); experiment: Inhibition of pRb p110 phosphorylation in human HCT116 cells at 5 to 10 uM after 48 hrs by Western blotting relative to unphosphorylated p105; assay type: cell-based; conditions: HCT-116
T1 sequence (whole entry): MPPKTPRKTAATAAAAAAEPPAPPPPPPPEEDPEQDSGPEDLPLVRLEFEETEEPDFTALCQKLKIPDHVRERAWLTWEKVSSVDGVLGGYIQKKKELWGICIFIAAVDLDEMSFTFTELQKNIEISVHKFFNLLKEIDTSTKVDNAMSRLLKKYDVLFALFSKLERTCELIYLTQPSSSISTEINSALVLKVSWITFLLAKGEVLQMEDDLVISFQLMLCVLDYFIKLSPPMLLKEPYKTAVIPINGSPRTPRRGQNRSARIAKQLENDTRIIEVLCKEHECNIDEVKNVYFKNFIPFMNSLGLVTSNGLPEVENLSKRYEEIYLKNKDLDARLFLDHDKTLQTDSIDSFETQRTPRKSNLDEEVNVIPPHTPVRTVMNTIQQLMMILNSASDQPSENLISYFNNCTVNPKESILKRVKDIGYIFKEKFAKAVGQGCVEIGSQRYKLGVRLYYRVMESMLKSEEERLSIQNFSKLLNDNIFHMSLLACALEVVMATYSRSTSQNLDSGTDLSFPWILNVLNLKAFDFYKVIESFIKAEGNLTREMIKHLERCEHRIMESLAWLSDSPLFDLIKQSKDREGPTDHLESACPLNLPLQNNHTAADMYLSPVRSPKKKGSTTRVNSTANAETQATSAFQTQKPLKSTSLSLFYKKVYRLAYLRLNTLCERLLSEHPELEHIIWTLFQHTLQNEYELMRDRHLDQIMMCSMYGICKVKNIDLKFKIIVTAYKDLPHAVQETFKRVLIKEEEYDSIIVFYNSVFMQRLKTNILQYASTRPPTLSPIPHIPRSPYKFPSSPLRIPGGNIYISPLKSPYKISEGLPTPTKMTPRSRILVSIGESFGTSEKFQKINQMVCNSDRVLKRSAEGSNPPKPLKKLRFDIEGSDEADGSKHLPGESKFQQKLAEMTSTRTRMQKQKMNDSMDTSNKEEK

SNB-19 = experiment: Growth inhibition of human SNB19 cells after 48 hrs by sulforhodamine B assay; assay type: functional; conditions: SNB-19, 48 h
TK-10 = experiment: Growth inhibition of human TK10 cells after 48 hrs by sulforhodamine B assay; assay type: functional; conditions: TK-10, 48 h
IGROV-1 = experiment: Growth inhibition of human IGROV1 cells after 48 hrs by sulforhodamine B assay; assay type: functional; conditions: IGROV-1, 48 h
HCT-116 [2] = experiment: Cell cycle arrest in human HCT116 cells assessed as accumulation of G2-M phase at 5 uM after 48 hrs using propidium iodide staining by flow cytometric analysis (reference value: 19.2%); assay type: functional
HOP-62 = experiment: Growth inhibition of human HOP62 cells after 48 hrs by sulforhodamine B assay; assay type: functional; conditions: HOP-62, 48 h
HL-60(TB) = experiment: Growth inhibition of human HL-60(TB) cells after 48 hrs by sulforhodamine B assay; assay type: functional; conditions: HL-60, 48 h
HCT-116 [3] = experiment: Cell cycle arrest in human HCT116 cells assessed as accumulation of sub-G0-G1 phase at 5 uM after 48 hrs using propidium iodide staining by flow cytometric analysis (reference value: 15.2%); assay type: functional
COLO 205 = experiment: Growth inhibition of human COLO205 cells after 48 hrs by sulforhodamine B assay; assay type: functional; conditions: COLO 205, 48 h
[4] = Growth inhibition of human HOP92 cells after 48 hrs by sulforhodamine B assay; assay type: functional; conditions: HOP-92, 48 h
MDA-MB-231 [5] = experiment: Cell cycle arrest in human MDA-MB-231 cells assessed as accumulation of G2-M phase at 5 uM after 48 hrs using propidium iodide staining by flow cytometric analysis (reference value: 27.5%); assay type: functional
K562 = experiment: Growth inhibition of human K562 cells after 48 hrs by sulforhodamine B assay; assay type: functional; conditions: K562, 48 h
[6] = target: T1, Retinoblastoma-associated protein (Homo sapiens); experiment: Inhibition of pRb p110 phosphorylation in human HCT116 cells after 48 hrs by Western blotting; assay type: cell-based; conditions: HCT-116
HCT-116 [7] = experiment: Cell cycle arrest in human HCT116 cells assessed as accumulation of sub-G0-G1 phase at 10 uM after 48 hrs using propidium iodide staining by flow cytometric analysis (reference value: 15.2%); assay type: functional
[8] = Growth inhibition of human Hs 578T cells after 48 hrs by sulforhodamine B assay; assay type: functional
MDA-MB-231 [9] = experiment: Cell cycle arrest in human MDA-MB-231 cells assessed as accumulation of G0-G1 phase at 5 uM after 48 hrs using propidium iodide staining by flow cytometric analysis (reference value: 42.2%); assay type: functional
MCF7 = experiment: Growth inhibition of human MCF7 cells after 48 hrs by sulforhodamine B assay; assay type: functional; conditions: MCF7, 48 h
MDA-MB-435 = experiment: Growth inhibition of human MDA-MB-435 cells after 48 hrs by sulforhodamine B assay; assay type: functional; conditions: MDA-MB-435, 48 h
UACC-62 = experiment: Growth inhibition of human UACC62 cells after 48 hrs by sulforhodamine B assay; assay type: functional; conditions: UACC-62, 48 h
[10] = Growth inhibition of human UACC257 cells after 48 hrs by sulforhodamine B assay; assay type: functional; conditions: UACC-257, 48 h
NCI-H460 = experiment: Growth inhibition of human NCI-H460 cells after 48 hrs by sulforhodamine B assay; assay type: functional; conditions: NCI-H460, 48 h
SK-MEL-5 = experiment: Growth inhibition of human SK-MEL-5 cells after 48 hrs by sulforhodamine B assay; assay type: functional; conditions: SK-MEL-5, 48 h
[11] = Growth inhibition of human NCI-ADR-RES cells after 48 hrs by sulforhodamine B assay; assay type: functional
SR = experiment: Growth inhibition of human SR cells after 48 hrs by sulforhodamine B assay; assay type: functional
OVCAR-3 = experiment: Growth inhibition of human OVCAR3 cells after 48 hrs by sulforhodamine B assay; assay type: functional; conditions: OVCAR-3, 48 h
HT-29 = experiment: Growth inhibition of human HT-29 cells after 48 hrs by sulforhodamine B assay; assay type: functional; conditions: HT-29, 48 h
SK-OV-3 = experiment: Growth inhibition of human SKOV3 cells after 48 hrs by sulforhodamine B assay; assay type: functional; conditions: SK-OV-3, 48 h
MDA-MB-231 [12] = experiment: Cell cycle arrest in human MDA-MB-231 cells assessed as accumulation of sub-G0-G1 phase at 10 uM after 48 hrs using propidium iodide staining by flow cytometric analysis (reference value: 8.4%); assay type: functional
OVCAR-8 = experiment: Growth inhibition of human OVCAR8 cells after 48 hrs by sulforhodamine B assay; assay type: functional; conditions: OVCAR-8, 48 h
DU-145 = experiment: Growth inhibition of human DU145 cells after 48 hrs by sulforhodamine B assay; assay type: functional; conditions: DU-145, 48 h
NCI-H226 = experiment: Growth inhibition of human NCI-H226 cells after 48 hrs by sulforhodamine B assay; assay type: functional; conditions: NCI-H226, 48 h

## C=C1c2c(C)nn(-c3ccc(OC)cc3)c2N(C)C23CC1C1(C)c4c(C)nn(-c5ccc(OC)cc5)c4N(C)C(C)(CC12)C3 (configuration not stated)
ACHN
  GI50: 3.3 µM
[1]
  inhibition: Active
SNB-19
  GI50: 4.34 µM
TK-10
  GI50: 3.63 µM
IGROV-1
  GI50: 7.54 µM
HCT-116 [2]
  Activity: 12.3%
HOP-62
  GI50: 4.28 µM
HL-60(TB)
  GI50: 2.54 µM
HCT-116 [3]
  Activity: 14.3%
COLO 205
  GI50: 2.2 µM
[4]
  GI50: 1.18 µM
MDA-MB-231 [5]
  Activity: 18.6%
K562
  GI50: 3.6 µM
[6]
  inhibition: Dose-dependent effect
HCT-116 [7]
  Activity: 13.5%
[8]
  GI50: 6.24 µM
MDA-MB-231 [9]
  Activity: 53.5%
MCF7
  GI50: 2.69 µM
MDA-MB-435
  GI50: 3.4 µM
UACC-62
  GI50: 2.86 µM
[10]
  GI50: 2.68 µM
NCI-H460
  GI50: 2.49 µM
SK-MEL-5
  GI50: 1.73 µM
[11]
  GI50: 4.04 µM
SR
  GI50: 3.16 µM
OVCAR-3
  GI50: 3.27 µM
HT-29
  GI50: 3.24 µM
SK-OV-3
  GI50: 3.39 µM
MDA-MB-231 [12]
  Activity: 4.6%
OVCAR-8
  GI50: 3.4 µM
DU-145
  GI50: 4.38 µM
NCI-H226
  GI50: 4.44 µM
